Experiment [1] relates to MCF-7 human breast cancer cells. The experiment in a line: AlamarBlue cell viability assay. To be noted: Homo sapiens, MCF7, 72 h. Type of experiment: cell-based. The procedure: The antiproliferative potential of the synthesised 3-fluoro β-lactams 26–35 and 3,3-difluoro β-lactams 36–45 was evaluated in MCF-7 human breast cancer cells using the AlamarBlue assay, with CA-4 as reference compound (Figure 3). […] The results for the preliminary in vitro antiproliferative screen for 3-fluoro β-lactam compounds (26–29), which contain different substituents at the para position in the B ring, are presented in Figure 3A.
Cells were seeded at a density of 5 × 10^3 cells/well (MCF-7 and MDA-MB-231) and 1 × 10^4 cells/well (HEK-293T) in 96-well plates (200 μL per well). After 24 h, cells were then treated with medium alone, with vehicle (1% ethanol (v/v)) or with CA-4 or β-lactam compounds at 1 μM and 10 μM concentrations. […] Cell proliferation for MCF-7 cells was analysed with the AlamarBlue assay (Invitrogen Corp.) as previously described by us. After 72 h, AlamarBlue (10% (v/v)) was added to each well, and plates were incubated for 3–5 h at 37 °C in the dark. Fluorescence results were obtained with a 96-well fluorimeter with excitation at 530 nm and emission at 590 nm with results recorded as percentage viability relative to vehicle control (100%). Dose–response curves were obtained and IC50 values (concentration of drug resulting in 50% reduction in cell survival) were calculated using Prism (GraphPad Software, Inc., La Jolla, CA, USA).
Figure 3 Preliminary cell viability data for 3-fluoro and 3,3-difluoro β-lactam compounds. (A) 3-Fluoro β-lactam compounds containing different para-substituent ring B 26–29; 3-fluoro β-lactam compounds containing different meta-substituent ring B 30, 32–35; (B) 3-difluoro β-lactam compounds containing different para-substituent ring B 36–39; 3-difluoro β-lactam compounds containing different meta-substituent ring B 40, 42–45 in MCF-7 breast cancer cells. Cell proliferation of MCF-7 cells was determined with an AlamarBlue assay (seeding density […] for 96-well plates). Compound concentrations of either 10 μM or 1 μM for 72 h were used to treat the cells with control wells containing vehicle ethanol (1% v/v) and CA-4 (10 μM and 1 μM). The mean value for three experiments is shown with the ± S.E.M. for three independent experiments.
A general note: Resazurin is reduced to fluorescent resorufin, in cell work by metabolically active cells.

A further experiment has as its system Hs578T cells. The experiment in a line: AlamarBlue cell viability assay. Type of experiment: cell-based. The following applies: Homo sapiens, Hs-578T. Here is the method: (§1) The potent 3-fluoro-β-lactam compound 33 synthesised was also evaluated in the triple-negative MDA-MB-231 cell line which lacks expression of the estrogen and progesterone receptors (ER/PR) and the HER2 receptor. […]. Compound 32 was also evaluated in the triple-negative breast cancer cell line Hs578T and its isogenic subclone Hs578T(i)8 (Figure 4C). Hs578Ts(i)8 cells have 2.5-fold more migratory capacity and 3-fold more invasive capacity through the extracellular matrix than the parental cell line (Hs578T) and have 30% more CD44+/CD24-/low cells and in vivo proliferation. […]. The human breast carcinoma cell lines MCF-7 and MDA-MB-231 were purchased from the European Collection of Animal Cell Cultures (ECACC, Salisbury, UK). The SW-480 cells were a kind gift from Dr. Brian Flood, School of Biochemistry and Immunology, Trinity College Dublin. The human breast tumour cell line MCF-7 was cultured in Eagles minimum essential medium with 10% foetal bovine serum, 2 mM L-glutamine and 100 μg/mL penicillin/streptomycin. The medium was supplemented with 1% non-essential amino acids. The human breast tumour cell line MDA-MB-231 cells were maintained in Dulbecco’s modified Eagle’s medium (DMEM) with the addition of penicillin/streptomycin (100 µg/mL), 10% (v/v) foetal bovine serum and 2 mM L-glutamine (complete medium). Breast cancer cell line Hs578T and its isogenic subclone Hs578T(i)8 were a kind gift from Dr. Susan McDonnell, School of Chemical and Bioprocess Engineering, University College Dublin. SW-480 cells, triple-negative breast cancer Hs578T cells and invasive variant Hs578T8i cells were cultured in DMEM with GlutaMAX-I, with the same supplement in the absence of non-essential amino acids. HEK-293T cells (normal epithelial embryonic kidney cells) were cultured in DMEM with GlutaMAX-I in the absence of non-essential amino acids. The SW-480 cells were cultured in DMEM with GlutaMAX-I, with the same supplement in the absence of non-essential amino acids. All media contained 100 U/mL penicillin and 100 μg/mL streptomycin. The cells were seeded into pre-warmed complete medium (10 × 10^4 cells/mL) and maintained at a cell density of 2–19 × 10^5 cells /mL by the addition of fresh media. The cell number was monitored using a haemocytometer. Cells were maintained at 37 °C in 5% CO2 in a humidified incubator. […]
(§2) Figure 4 Antiproliferative activity of 3-fluoro β-lactams on MCF-7, MDA-MB-231, Hs578T and Hs578T isogenic subclone Hs578T(i)8 breast cancer cells and non-tumourigenic HEK-293T cells. […] Cell viability was expressed as a percentage of vehicle control (ethanol 1% (v/v))-treated cells. […] Cell viability was expressed as a percentage of vehicle control (ethanol 1% (v/v))-treated cells and was measured by AlamarBlue assay (average of three independent experiments). […]

For another experiment, the system named is Hs578Ts(i)8 cells. Nature of the experiment: AlamarBlue cell viability assay. Type of experiment: cell-based. Here is the method: as §1, §2
Experiment [2] deals with purified bovine brain tubulin. Nature of the experiment: Tubulin polymerisation assay (turbidimetric, 340 nm). To be noted: paclitaxel 10 µM; 33 10 and 30 µM. Type of experiment: biochemical. Here is the method: Tubulin polymerisation was investigated using a turbidimetric assay which determines the light scattering by microtubules (absorbance at 340 nm) that is proportional to the microtubule polymer concentration.
Tubulin polymerisation was monitored with purified bovine tubulin using the BK006 kit supplied by Cytoskeleton Inc. (Denver, CO, USA), carried out following the manufacturer’s instructions with the standard assay conditions. Purified (>99%) bovine brain tubulin (3 mg/mL) in a buffer containing PIPES (80 mM, pH 6.9), EGTA (0.5 mM), MgCl2 (2 mM), GTP (1 mM) and glycerol (10%) was incubated at 37 °C in the presence of either vehicle (2% (v/v) ddH2O) or paclitaxel (10 µM), CA-4 (10 μM) or 33 (10 and 30 µM). The effect on tubulin assembly was monitored turbidimetrically at 340 nm in a Spectramax 340 PC spectrophotometer (Molecular Devices, Sunnyvale, CA, USA), with the light scattered depending on the concentration of polymerised microtubules formed. The absorbance was measured at 30 s intervals for 60 min.
Figure 7 Effect of β-lactam compound 33 (10 and 30 µM) and paclitaxel (10 µM) on in vitro tubulin polymerisation. Purified bovine tubulin and GTP were mixed in a 96-well plate. Compounds were added and the reaction was started by warming the solution from 4 to 37 °C. Ethanol (1% v/v) was used as a vehicle control. The effect on tubulin assembly was monitored in a Spectramax 340PC spectrophotometer at 340 nm at 30 s intervals for 30 min at 37 °C. […] Each experiment was performed in duplicate.

Another experiment deals with MCF-7 cells. Nature of the experiment: Immunofluorescence confocal microscopy of the microtubule network. Type of experiment: cell-based, human. To be noted: MCF-7, 16 h; 33 0.1, 0.5 and 1.0 μM; paclitaxel 1.0 μM; CA-4 0.01 μM. Here is the method: The tubulin-targeting effect of compound 33 on the microtubule network of MCF-7 cells was further evaluated by immunofluorescence studies to identify the cellular effects that are relevant to its mechanism of action by inhibiting the polymerisation of tubulin. […] Treatment of MCF-7 cells with compound 33 (0.1, 0.5 and 1.0 μM) induced cell rounding and distinct abnormalities of the spindle formation as well as a loss of the structured tubulin that impacts the microtubule network structure in a dose-dependent manner.
Confocal microscopy was used to determine the effects of novel compound 33 and standard drugs on the MCF-7 cytoskeleton according to the protocols we previously described. For the immunofluorescence study, MCF-7 cells were seeded at 1 × 10^5 cells/mL using eight chamber glass slides (BD Biosciences). The cells were treated with vehicle control (1% ethanol (v/v)), CA-4 (0.01 μM), paclitaxel (1 µM) and 33 (0.1 µM, 0.5 µM and 1 µM) for 16 h. The cells were gently washed in PBS, fixed with 4% paraformaldehyde in PBS (20 min) and permeabilised in 0.5% Triton X-100. After further washes in PBS (containing 0.1% Tween (PBST)), cells were blocked with 5% bovine serum albumin which was diluted with PBST. Cells were incubated with mouse monoclonal anti-α-tubulin–FITC antibody (clone DM1A) (Sigma) (1:100) at 20 °C for 2 h and then washed in PBST and incubated with Alexa Fluor 488 dye (1:500) for 1 h at 20 °C. Cells were washed in PBST and mounted in Ultra Cruz Mounting Media (Santa Cruz Biotechnology, Santa Cruz, CA, USA) containing 4,6-diamino-2-phenolindol dihydrochloride (DAPI). The images were captured by Leica SP8 confocal microscopy with Leica Application Suite X software. Experiments were performed on three independent occasions and images were collected on the same day using identical parameters.
Figure 8 Compound 33 acts as depolymeriser of the microtubule network of MCF-7 breast cancer cells. Cells were treated with vehicle control ([…]), CA-4 (0.01 μM), paclitaxel (1 μM) or compound 33 (0.1, 0.5 and 1 μM) for 16 h. […]

The source of these data is publication PMC9501633, “Synthesis, Characterisation and Mechanism of Action of Anticancer 3-Fluoroazetidin-2-ones” (Pharmaceuticals, 2022).

Structures are written as SMILES.

What is called IC50 is the point on the concentration scale where inhibition reaches its midpoint. A high value points to weaker potency. As for `COc1ccc(C2C(F)C(=O)N2c2cc(OC)c(OC)c(OC)c2)cc1O` (stereo not drawn) [Compound 32, 3-Fluoro-4-(3-hydroxy-4-methoxyphenyl)-1-(3,4,5-trimethoxyphenyl)azetidin-2-one], in experiment [1] (MCF-7, 1 μM, 72 h, read-out: viable cells remaining), the viability at 1 µM was 30%. Further, the IC50 in experiment [1] (MCF-7, 72 h) worked out at 75 nM; in the experiment on Hs578T cells, 33 nM; in the experiment with Hs578Ts(i)8 cells, 65 nM.
As to `CC(=O)O[C@H]1C(=O)[C@@]2(C)[C@H]([C@H](OC(=O)c3ccccc3)[C@]3(O)C[C@H](OC(=O)[C@H](O)[C@@H](NC(=O)c4ccccc4)c4ccccc4)C(C)=C1C3(C)C)[C@]1(OC(C)=O)CO[C@@H]1C[C@@H]2O` [Paclitaxel, reference compound], the “effect on tubulin polymerisation” value in experiment [2] is listed as “stabilises the tubulin”. Also, the “effect on the microtubule network” value in the experiment with MCF-7 cells is “significant stabilisation of microtubules”.
